Common to all, as to experiment: Radiolabeled ATP kinase assay, panel of 371 kinases (Table S6)
Common to all, as to format: biochemical

In experiment [1] the target is T1, panel of 371 human kinases (Homo sapiens, UniProt Q14680).
T1 construct: purchased Reaction Biology Corp
The note with it: MELK; 0.1 μM; 10 μM ATP; read-out: % Enzyme Activity (relative to DMSO controls). An excerpt:
(§1) ; FIG. 38C). […]. Further targeted analyses, such as genetic knock-down or knock-out, may be warranted to parse the role of these additional kinases in our model of neurodegeneration.

Experiment [2] deals with T2, panel of 371 human kinases (Homo sapiens, UniProt Q9Y6M4).
T2 construct: purchased Reaction Biology Corp
Conditions: CK1g3; 0.1 μM; 10 μM ATP; read-out: % Enzyme Activity (relative to DMSO controls).
Source text: as §1

The target of experiment [3] is T3, panel of 371 human kinases (Homo sapiens, UniProt O00506).
T3 construct: purchased Reaction Biology Corp
Conditions: STK25/YSK1; 0.1 μM; 10 μM ATP; read-out: % Enzyme Activity (relative to DMSO controls).
Source text: as §1

The target of experiment [4] is T4, panel of 371 human kinases (Homo sapiens, UniProt P17948).
T4 construct: purchased Reaction Biology Corp
Conditions: FLT1/VEGFR1; 0.1 μM; 10 μM ATP; read-out: % Enzyme Activity (relative to DMSO controls).
Source text: as §1

The target in experiment [5] is T5, panel of 371 human kinases (Homo sapiens, UniProt P35968).
T5 construct: purchased Reaction Biology Corp
The note with it: KDR/VEGFR2; 0.1 μM; 10 μM ATP; read-out: % Enzyme Activity (relative to DMSO controls).
Source text: as §1

For experiment [6], the target named is T6, panel of 371 human kinases (Homo sapiens, UniProt O43353).
T6 construct: purchased Reaction Biology Corp
Conditions: RIPK2; 0.1 μM; 10 μM ATP; read-out: % Enzyme Activity (relative to DMSO controls).
Source text: as §1

Experiment [7] concerns the target T7, panel of 371 human kinases (Homo sapiens, UniProt Q9H2G2).
T7 construct: purchased Reaction Biology Corp
Conditions: SLK/STK2; 0.1 μM; 10 μM ATP; read-out: % Enzyme Activity (relative to DMSO controls).
Source text: as §1

For experiment [8], the target named is T8, panel of 371 human kinases (Homo sapiens, UniProt P42684).
T8 construct: purchased Reaction Biology Corp
The note with it: ABL2/ARG; 0.1 μM; 10 μM ATP; read-out: % Enzyme Activity (relative to DMSO controls).
Source text: as §1

Experiment [9] deals with T9, panel of 371 human kinases (Homo sapiens, UniProt P54764).
T9 construct: purchased Reaction Biology Corp
Conditions: EPHA4; 0.1 μM; 10 μM ATP; read-out: % Enzyme Activity (relative to DMSO controls).
Source text: as §1

Experiment [10] concerns the target T10, panel of 371 human kinases (Homo sapiens, UniProt Q14164).
T10 construct: purchased Reaction Biology Corp
The note with it: IKKe/IKBKE; 0.1 μM; 10 μM ATP; read-out: % Enzyme Activity (relative to DMSO controls).
Source text: as §1

In experiment [11] the target is T11, panel of 371 human kinases (Homo sapiens, UniProt Q9UPZ9).
T11 construct: purchased Reaction Biology Corp
Conditions: LCK2/ICK; 0.1 μM; 10 μM ATP; read-out: % Enzyme Activity (relative to DMSO controls).
Source text: as §1

The target of experiment [12] is T12, panel of 371 human kinases (Homo sapiens, UniProt Q9NY57).
T12 construct: purchased Reaction Biology Corp
The note with it: STK32B/YANK2; 0.1 μM; 10 μM ATP; read-out: % Enzyme Activity (relative to DMSO controls).
Source text: as §1

Experiment [13] addresses T13, panel of 371 human kinases (Homo sapiens, UniProt P09769).
T13 construct: purchased Reaction Biology Corp
Conditions: FGR; 0.1 μM; 10 μM ATP; read-out: % Enzyme Activity (relative to DMSO controls).
Source text: as §1

Experiment [14] deals with T14, panel of 371 human kinases (Homo sapiens, UniProt P04629).
T14 construct: purchased Reaction Biology Corp
The note with it: TRKA; 0.1 μM; 10 μM ATP; read-out: % Enzyme Activity (relative to DMSO controls).
Source text: as §1

For experiment [15], the target named is T15, panel of 371 human kinases (Homo sapiens, UniProt P27361).
T15 construct: purchased Reaction Biology Corp
The note with it: ERK1; 0.1 μM; 10 μM ATP; read-out: % Enzyme Activity (relative to DMSO controls).
Source text: as §1

For experiment [16], the target named is T16, panel of 371 human kinases (Homo sapiens, UniProt Q9H422).
T16 construct: purchased Reaction Biology Corp
Conditions: HIPK3; 0.1 μM; 10 μM ATP; read-out: % Enzyme Activity (relative to DMSO controls).
Source text: as §1

For experiment [17], the target named is T17, panel of 371 human kinases (Homo sapiens, UniProt O43293).
T17 construct: purchased Reaction Biology Corp
The note with it: ZIPK/DAPK3; 0.1 μM; 10 μM ATP; read-out: % Enzyme Activity (relative to DMSO controls).
Source text: as §1

Experiment [18] concerns the target T18, panel of 371 human kinases (Homo sapiens, UniProt P57059).
T18 construct: purchased Reaction Biology Corp
Conditions: SIK1; 0.1 μM; 10 μM ATP; read-out: % Enzyme Activity (relative to DMSO controls).
Source text: as §1

Experiment [19] addresses T19, panel of 371 human kinases (Homo sapiens, UniProt Q13882).
T19 construct: purchased Reaction Biology Corp
The note with it: BRK; 0.1 μM; 10 μM ATP; read-out: % Enzyme Activity (relative to DMSO controls).
Source text: as §1

Experiment [20] has as its target T20, panel of 371 human kinases (Homo sapiens, UniProt Q92918).
T20 construct: purchased Reaction Biology Corp
The note with it: HPK1/MAP4K1; 0.1 μM; 10 μM ATP; read-out: % Enzyme Activity (relative to DMSO controls).
Source text: as §1

Experiment [21] has as its target T21, panel of 371 human kinases (Homo sapiens, UniProt P22607).
T21 construct: purchased Reaction Biology Corp
Conditions: FGFR3; 0.1 μM; 10 μM ATP; read-out: % Enzyme Activity (relative to DMSO controls).
Source text: as §1

Experiment [22] addresses T22, panel of 371 human kinases (Homo sapiens, UniProt O15530).
T22 construct: purchased Reaction Biology Corp
Conditions: PDK1/PDPK1; 0.1 μM; 10 μM ATP; read-out: % Enzyme Activity (relative to DMSO controls).
Source text: as §1

In experiment [23] the target is T23, panel of 371 human kinases (Homo sapiens, UniProt Q99759).
T23 construct: purchased Reaction Biology Corp
The note with it: MEKK3; 0.1 μM; 10 μM ATP; read-out: % Enzyme Activity (relative to DMSO controls).
Source text: as §1

The target of experiment [24] is T24, panel of 371 human kinases (Homo sapiens, UniProt Q9Y463).
T24 construct: purchased Reaction Biology Corp
The note with it: DYRK1B; 0.1 μM; 10 μM ATP; read-out: % Enzyme Activity (relative to DMSO controls).
Source text: as §1

T4 sequence (P17948 27-1338): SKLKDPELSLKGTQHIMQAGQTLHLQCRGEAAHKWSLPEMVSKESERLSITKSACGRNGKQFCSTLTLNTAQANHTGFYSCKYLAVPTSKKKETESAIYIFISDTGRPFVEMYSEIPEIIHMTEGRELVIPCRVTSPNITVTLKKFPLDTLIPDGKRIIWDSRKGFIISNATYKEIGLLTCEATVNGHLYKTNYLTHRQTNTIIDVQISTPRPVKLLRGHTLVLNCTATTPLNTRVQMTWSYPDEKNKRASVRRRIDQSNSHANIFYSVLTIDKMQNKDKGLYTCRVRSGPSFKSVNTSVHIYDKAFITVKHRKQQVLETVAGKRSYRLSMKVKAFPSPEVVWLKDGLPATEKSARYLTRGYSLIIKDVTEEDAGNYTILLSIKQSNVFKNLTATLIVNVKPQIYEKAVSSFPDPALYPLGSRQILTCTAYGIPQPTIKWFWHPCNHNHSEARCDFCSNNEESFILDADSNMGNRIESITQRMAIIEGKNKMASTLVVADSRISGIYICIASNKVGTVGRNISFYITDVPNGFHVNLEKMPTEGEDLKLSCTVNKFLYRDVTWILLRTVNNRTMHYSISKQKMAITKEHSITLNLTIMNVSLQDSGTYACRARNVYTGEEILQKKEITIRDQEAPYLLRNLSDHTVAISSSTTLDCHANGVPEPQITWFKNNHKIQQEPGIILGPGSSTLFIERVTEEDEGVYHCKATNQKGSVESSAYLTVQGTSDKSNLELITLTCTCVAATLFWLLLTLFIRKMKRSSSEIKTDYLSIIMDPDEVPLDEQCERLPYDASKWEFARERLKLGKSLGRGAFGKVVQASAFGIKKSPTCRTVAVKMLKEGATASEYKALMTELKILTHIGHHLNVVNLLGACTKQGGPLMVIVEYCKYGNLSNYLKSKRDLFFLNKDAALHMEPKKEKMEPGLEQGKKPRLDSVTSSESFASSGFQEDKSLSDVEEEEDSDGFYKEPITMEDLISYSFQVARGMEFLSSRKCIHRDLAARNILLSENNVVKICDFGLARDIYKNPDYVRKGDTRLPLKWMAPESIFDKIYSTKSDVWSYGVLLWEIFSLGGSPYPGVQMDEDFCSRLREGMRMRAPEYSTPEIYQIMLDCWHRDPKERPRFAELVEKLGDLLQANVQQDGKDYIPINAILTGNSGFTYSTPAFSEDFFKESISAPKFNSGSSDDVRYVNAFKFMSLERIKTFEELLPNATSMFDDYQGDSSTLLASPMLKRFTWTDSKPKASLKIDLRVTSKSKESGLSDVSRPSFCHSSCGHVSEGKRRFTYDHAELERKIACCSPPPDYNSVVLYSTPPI
T10 sequence (Q14164 whole entry): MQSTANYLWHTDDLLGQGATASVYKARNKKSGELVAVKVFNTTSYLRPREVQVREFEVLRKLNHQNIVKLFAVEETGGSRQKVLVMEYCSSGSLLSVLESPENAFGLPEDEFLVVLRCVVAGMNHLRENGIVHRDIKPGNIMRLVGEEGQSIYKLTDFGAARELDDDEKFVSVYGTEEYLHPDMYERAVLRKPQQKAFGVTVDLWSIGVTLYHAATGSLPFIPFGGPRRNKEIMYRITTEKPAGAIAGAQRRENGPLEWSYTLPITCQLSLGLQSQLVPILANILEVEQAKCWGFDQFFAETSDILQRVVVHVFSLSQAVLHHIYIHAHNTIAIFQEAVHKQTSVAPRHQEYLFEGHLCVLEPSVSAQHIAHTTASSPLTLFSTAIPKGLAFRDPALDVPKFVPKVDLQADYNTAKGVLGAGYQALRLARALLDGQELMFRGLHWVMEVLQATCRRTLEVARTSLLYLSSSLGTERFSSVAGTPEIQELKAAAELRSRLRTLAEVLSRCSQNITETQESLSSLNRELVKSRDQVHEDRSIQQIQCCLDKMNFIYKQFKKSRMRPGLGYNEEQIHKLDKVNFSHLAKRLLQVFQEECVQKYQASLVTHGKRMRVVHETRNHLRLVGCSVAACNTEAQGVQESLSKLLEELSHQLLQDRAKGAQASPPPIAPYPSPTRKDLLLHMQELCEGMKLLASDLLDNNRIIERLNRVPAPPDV
T21 sequence (P22607 23-806): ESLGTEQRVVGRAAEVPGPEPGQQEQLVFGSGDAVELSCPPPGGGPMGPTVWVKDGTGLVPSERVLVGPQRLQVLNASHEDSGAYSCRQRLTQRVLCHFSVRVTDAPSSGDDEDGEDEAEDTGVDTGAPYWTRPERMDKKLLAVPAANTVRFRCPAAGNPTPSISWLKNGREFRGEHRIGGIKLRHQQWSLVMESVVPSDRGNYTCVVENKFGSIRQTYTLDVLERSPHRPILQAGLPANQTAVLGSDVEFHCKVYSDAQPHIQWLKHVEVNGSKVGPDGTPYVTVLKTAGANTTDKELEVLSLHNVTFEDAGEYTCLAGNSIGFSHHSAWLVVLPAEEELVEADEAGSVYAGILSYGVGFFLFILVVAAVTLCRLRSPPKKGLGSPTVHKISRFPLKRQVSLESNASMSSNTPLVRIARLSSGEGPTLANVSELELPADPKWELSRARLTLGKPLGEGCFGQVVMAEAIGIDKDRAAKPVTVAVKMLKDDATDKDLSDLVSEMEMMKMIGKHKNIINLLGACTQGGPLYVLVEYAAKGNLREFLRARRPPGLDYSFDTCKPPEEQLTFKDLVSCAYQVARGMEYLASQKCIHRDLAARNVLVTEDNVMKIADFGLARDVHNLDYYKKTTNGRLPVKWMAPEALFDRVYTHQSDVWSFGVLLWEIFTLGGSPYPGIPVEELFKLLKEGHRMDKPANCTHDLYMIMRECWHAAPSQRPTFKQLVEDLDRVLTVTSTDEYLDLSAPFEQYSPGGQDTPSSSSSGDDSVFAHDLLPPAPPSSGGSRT
T14 sequence (P04629 33-796): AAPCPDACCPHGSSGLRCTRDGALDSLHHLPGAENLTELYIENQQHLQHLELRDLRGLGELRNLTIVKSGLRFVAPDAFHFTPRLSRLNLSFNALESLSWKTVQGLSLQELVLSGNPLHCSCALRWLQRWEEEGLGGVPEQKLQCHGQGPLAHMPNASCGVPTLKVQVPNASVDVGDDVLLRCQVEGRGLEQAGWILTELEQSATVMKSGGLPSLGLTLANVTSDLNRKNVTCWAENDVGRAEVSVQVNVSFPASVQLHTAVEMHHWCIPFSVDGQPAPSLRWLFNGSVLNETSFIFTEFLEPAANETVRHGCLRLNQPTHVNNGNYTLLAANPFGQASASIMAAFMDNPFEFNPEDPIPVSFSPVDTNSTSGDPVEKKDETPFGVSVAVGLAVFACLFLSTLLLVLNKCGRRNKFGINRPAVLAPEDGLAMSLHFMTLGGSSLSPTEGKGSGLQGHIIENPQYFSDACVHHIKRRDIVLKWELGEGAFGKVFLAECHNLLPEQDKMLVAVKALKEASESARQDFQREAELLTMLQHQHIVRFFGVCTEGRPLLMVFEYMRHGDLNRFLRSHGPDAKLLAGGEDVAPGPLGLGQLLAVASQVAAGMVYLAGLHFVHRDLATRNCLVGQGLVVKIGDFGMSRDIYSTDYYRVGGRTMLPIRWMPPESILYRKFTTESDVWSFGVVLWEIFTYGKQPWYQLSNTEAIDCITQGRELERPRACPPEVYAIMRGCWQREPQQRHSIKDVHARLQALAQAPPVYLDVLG
T2 sequence (Q9Y6M4 whole entry): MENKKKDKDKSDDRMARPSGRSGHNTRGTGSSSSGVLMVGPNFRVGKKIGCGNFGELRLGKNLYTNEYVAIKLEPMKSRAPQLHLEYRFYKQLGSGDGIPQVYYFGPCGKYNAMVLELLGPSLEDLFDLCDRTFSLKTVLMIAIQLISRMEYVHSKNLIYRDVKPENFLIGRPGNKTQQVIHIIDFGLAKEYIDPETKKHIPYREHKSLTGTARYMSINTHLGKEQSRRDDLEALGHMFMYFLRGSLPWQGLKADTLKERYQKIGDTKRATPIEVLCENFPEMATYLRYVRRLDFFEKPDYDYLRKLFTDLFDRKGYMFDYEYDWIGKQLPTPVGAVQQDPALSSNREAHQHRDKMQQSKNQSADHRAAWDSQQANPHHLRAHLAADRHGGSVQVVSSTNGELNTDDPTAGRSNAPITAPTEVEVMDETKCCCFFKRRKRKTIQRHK
T15 sequence (P27361 whole entry): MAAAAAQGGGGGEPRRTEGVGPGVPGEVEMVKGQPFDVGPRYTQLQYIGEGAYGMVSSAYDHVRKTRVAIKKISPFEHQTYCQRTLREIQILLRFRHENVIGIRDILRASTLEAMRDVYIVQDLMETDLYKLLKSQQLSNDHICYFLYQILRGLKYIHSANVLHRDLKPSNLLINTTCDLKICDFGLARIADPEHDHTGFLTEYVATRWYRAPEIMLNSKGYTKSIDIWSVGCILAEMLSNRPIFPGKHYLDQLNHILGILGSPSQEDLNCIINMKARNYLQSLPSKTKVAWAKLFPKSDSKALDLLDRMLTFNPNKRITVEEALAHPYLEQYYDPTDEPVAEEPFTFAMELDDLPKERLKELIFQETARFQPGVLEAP
T3 sequence (O00506 whole entry): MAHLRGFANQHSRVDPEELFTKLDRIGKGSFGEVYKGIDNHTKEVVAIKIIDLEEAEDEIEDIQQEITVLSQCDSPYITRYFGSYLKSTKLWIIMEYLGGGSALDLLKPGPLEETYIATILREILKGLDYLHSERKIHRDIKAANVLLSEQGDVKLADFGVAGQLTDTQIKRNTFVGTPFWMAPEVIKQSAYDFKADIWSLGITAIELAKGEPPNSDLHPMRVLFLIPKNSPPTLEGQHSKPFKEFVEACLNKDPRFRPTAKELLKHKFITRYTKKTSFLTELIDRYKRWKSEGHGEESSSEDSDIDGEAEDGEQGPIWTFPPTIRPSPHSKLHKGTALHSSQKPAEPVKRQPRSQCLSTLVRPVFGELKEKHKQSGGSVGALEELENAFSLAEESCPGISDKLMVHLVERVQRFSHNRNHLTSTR

As to `CN1CCN(Cc2ccc(-c3cnc4[nH]cc(-c5ccc6[nH]ccc6c5)c4c3)cc2)CC1` [Compound 1, 3-(1H-Indol-5-yl)-5-(4-((4-methylpiperazin-1-yl)methyl)phenyl)-1H-pyrrolo[2,3-b]pyridine, reference compound], the remaining activity at 0.1 µM came out at 48.1% in experiment [1]; 92.2% in experiment [2]; 102% in experiment [3]; 88.2% in experiment [4]; 76.2% in [5]; 78.5% in experiment [6]. Also, the remaining activity at 0.1 µM in experiment [7] was found to be 93.2%; in [8] it was 76.8%; in [9], 94.2%; in experiment [10] it was 82.5%; in [11], 111%; in experiment [12] it was 97%. Further, the remaining activity at 0.1 µM in experiment [13] came out at 97.2%; in experiment [14], 69.2%; in experiment [15], 86%; in [16], 103%; in experiment [17] it was 108%; in experiment [18], 102%. Besides, the remaining activity at 0.1 µM turned out to be 86.4% in experiment [19]; 49.6% in [20]; 76.7% in [21]; 110% in experiment [22]; 91.6% in experiment [23]; 43.2% in experiment [24].
Turning to `OCCN1CCN(Cc2ccc(-c3cnc4[nH]cc(-c5cccc(Cl)c5)c4c3)cc2)CC1` [Compound 12k, 2-(4-(4-(3-(3-Chlorophenyl)-1H-pyrrolo[2,3-b]pyridin-5-yl)benzyl)piperazin-1-yl)ethan-1-ol], the remaining activity at 0.1 µM turned out to be 71% in experiment [1]; 92.4% in [2]; 72.4% in [3]; 90.9% in experiment [4]; 84.7% in [5]; 92.3% in [6]. Further, the remaining activity at 0.1 µM in [7] is 83.5%; in [8], 75.1%; in experiment [9] it was 88.7%; in experiment [10], 63.8%; in experiment [11], 109%; in experiment [12] it was 88.5%. The remaining activity at 0.1 µM was 84.2% in experiment [13]; 75.4% in experiment [14]; 92.8% in experiment [15]; 113% in experiment [16]; 99.8% in [17]; 106% in [18]. In addition, the remaining activity at 0.1 µM worked out at 95% in experiment [19]; 47.9% in experiment [20]; 80.9% in [21]; 92.7% in experiment [22]; 94.6% in experiment [23]; 38.3% in experiment [24].

For the origin of these results see patent US12227500B2, “Substituted pyrrolo[2,3-b]pyridines for suppressing toxic endoplasmic reticulum stress” (THE TRUSTEES OF COLUMBIA UNIVERSITY IN THE CITY OF NEW YORK, priority 2018, dated 2025).
